Experimental data as given in patent publication US20090069324A1, “CHEMICAL INHIBITORS OF BFL-1 AND RELATED METHODS” (The Burnham Institute, priority 2007, published 2009).
Several values for one entry are separate records, joined by “and”; a condition that tells them apart may be missing. Equal values may be shown once.

Experiments:
[1] = target: T1, Bfl-1 (Homo sapiens, UniProt Q16548); test: Bfl-1 fluorescence polarization assay (FPA/FP), competition with FITC-Bid BH3 peptide; assay type: binding
T1 construct: lacking their C-terminal transmembrane domains (approximately last 20 amino-acids); made in house; host or cells: XL-1 Blue cells (E. coli), pGEX 4T-1
T1 sequence (Q16548 1-155 limits assumed): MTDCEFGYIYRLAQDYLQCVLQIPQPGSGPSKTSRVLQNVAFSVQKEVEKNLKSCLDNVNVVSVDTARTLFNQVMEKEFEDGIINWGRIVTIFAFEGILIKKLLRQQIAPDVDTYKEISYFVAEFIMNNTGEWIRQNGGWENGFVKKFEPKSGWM
Experimental: Fluorescence polarization assays (FPA). To determine the binding affinity of anti-apoptotic Bcl-2 polypeptides to FITC-conjugated Bid BH3 peptide, fluorescence polarization assays (FPAs) were performed according to published procedures (Zhai et al., Biochem. J. 376:229-236 (2003)). […] Fluorescence polarization was measured after 10 min using an Analyst™ AD Assay Detection System (LJL Biosystem, Sunnyvale, Calif.) in phosphate-buffered saline (PBS) (pH 7.4). The IC50 determinations were performed using GraphPad Prism software (GraphPad, Inc., San Diego, Calif.).
Competition assays. Using the same procedure outlined above, 100 nM of GST-Bfl-1 protein were incubated with the compounds at 50 μM concentration for 30 min. Then, 5 nM of FITC-Bid BH3 peptide was added. Fluorescence polarization was measured after 10 min. […]

[2] = target: T1, Bfl-1; test: Bfl-1 TR-FRET assay (FITC-Bid, Tb-anti-GST antibody); assay type: binding
Experimental: TR-FRET assay. For confirmation of FPA results, a TR-FRET assay utilizing terbium- (Tb-) labeled anti-GST antibody (Th-Ab) was developed. […] The reaction mixture was preincubated for 1 h, and TR-fluorescence (TRF) was measured on an M5 plate reader (Molecular Devices) using excitation at 340 nm and emission at […]. The measurements were averaged from 5 readings during 1 ms after an initial delay 0.1 ms. TR-FRET signal was calculated as the ratio of TR-Fluorescence at 520 nm to TR-Fluorescence at […].
For Bfl-1 TR-FRET assays, Bfl-1 protein and FITC-Bid peptide (FITC-Ahx-[…]) (SEQ ID NO: 1) were utilized. Terbium-anti-GST antibody (Tb-anti-GST Ab) was obtained from Invitrogen (San Diego Calif.). The assay buffer contained 25 mM Bis-Tris, pH 7.0, 1 mM TCEP, and 0.005% Tween 20. The Tb-Ab buffer contained 2.5 nM Tb-anti-GST antibody in assay buffer. The Bfl-1/Th-Ab working solution contained 5 nM Bfl-1 in Th-Ab assay buffer. The solution was prepared fresh and kept on ice prior to use. The FITC-Bid working solution contained 5.6 nM FITC-Bid in assay buffer.
For the Bfl-1 TR-FRET dose-response screening protocol, dose-response curves contained 10 concentrations of compounds obtained using 2-fold serial dilution. Compounds were serially diluted in 100% DMSO, and then diluted with water to 10% final DMSO concentration. A 4 μl aliquot of compounds in 10% DMSO was transferred into columns 3-22 of Greiner 384-well white small-volume plates. Columns 1-2 and 23-24 contained 4 μL of 10% DMSO.
Columns 1-2 were reserved for positive controls, and 8 μL of Th-Ab buffer was added using a WellMate bulk dispenser (Matrix). An aliquot of 8 μL of Bfl-1/Th-Ab working solution was added to columns 3-24 of Greiner 384 well white plates using a WellMate bulk dispenser (Matrix). Columns 23-24 represented negative control wells. Plates were incubated for 1 h at 4° C. An 8 μL aliquot of freshly prepared FITC-Bid working solution was added to the whole plate using WellMate bulk dispenser (Matrix). Plates were incubated for 4 h at room temperature protected from direct light. Fluorescence was measured on the M5 plate reader (excitation: 340 nm, emission: 490 and 520 nm, cutoff: 475 and 515 nm, respectively) in Time Resolved (TR) mode with signal integrated for 1 ms after initial delay of 0.1 ms. TR-FRET signal was calculated as the ratio of TR-Fluorescence at 520 nm to TR-Fluorescence at 490 nm. Data analysis was performed using a sigmoidal dose-response equation through non-linear regression.

[3] = Tables 3-5, read-out: Bfl-1 FP IC50
[4] = Tables 3-5, read-out: Bfl-1 TR FRET IC50
[5] = Tables 7-8, Avg where the cell lists several determinations, read-out: Bfl-1 FPA IC50
[6] = Tables 7-8, Avg where the cell lists several determinations, read-out: Bfl-1 TR-FRET IC50
[7] = Tables 7-8, single values listed before the Avg, read-out: Bfl-1 FPA IC50 (uM), individual determinations
[8] = Tables 7-8, single values listed before the Avg, read-out: Bfl-1 TR-FRET IC50 (uM), individual determinations
[9] = Tables 7-8, Avg where the cell lists several determinations

Row | Structure (SMILES) | IC50 [1, 3] | IC50 [2, 4] | IC50 [2, 6] | other results
1 | O=C1C(Cl)=C(N2CCN(c3ncccn3)CC2)C(=O)N1c1ccc(Cl)c(Cl)c1 [MLS-0090868] | 1.9 µM | 2.46 µM | – | –
2 | CCN1CCN(C2=C(Cl)C(=O)N(c3ccc(Cl)c(Cl)c3)C2=O)CC1 [MLS-0090860] | 1.67 µM | 0.97 µM | – | –
3 | C[C@H]1CN(C2=C(Cl)C(=O)N(c3ccc(Cl)c(Cl)c3)C2=O)CCN1 [MLS-0090858] | 1.32 µM | 1.25 µM | – | –
4 | CN1CCN(C2=C(Cl)C(=O)N(c3cccc(Cl)c3)C2=O)CC1 [MLS-0090834] | 2.15 µM | 1.17 µM | – | –
5 | CCOC(=O)CCS(=O)(=O)c1nc(-c2ccccc2)cc(C(F)(F)F)n1 [Compound 7914223] | – | – | 4 µM | IC50 [1, 5]: 7.9 µM
6 | COc1ccc(N2C(=O)C(Cl)=C(Nc3c(C)n(C)n(-c4ccccc4)c3=O)C2=O)cc1 [Compound 3453-0809] | – | – | > 100 µM | IC50 [1, 5]: 82.2 µM
7 | CN1CCN(C2=C(Cl)C(=O)N(c3c(Cl)cccc3Cl)C2=O)CC1 [MLS-0090830] | 13.7 µM | 3.72 µM | – | –
8 | CCOC(=O)CS(=O)(=O)c1nc(-c2ccccc2)cc(C(F)(F)F)n1 [Compound 7663066] | – | – | 2.91 µM | IC50 [1, 5]: 4.64 µM; IC50 [1, 7]: 2.63 µM and 2.4 µM and 5.42 µM and 8.1 µM; IC50 [2, 8]: 1.18 µM and 4.63 µM
9 | CS(=O)(=O)c1nc(-c2cccs2)cc(C(F)(F)F)n1 [Compound C164-0005] | – | – | 15.6 µM | IC50 [1, 5]: 6.3 µM
10 | Cc1cc(NC(=O)CCS(=O)(=O)c2nc(-c3ccccc3)cc(C(F)(F)F)n2)no1 [Compound 7979496] | – | – | 9.2 µM | IC50 [1, 5]: 14.6 µM
11 | Cc1ccc(Cl)c(N2C(=O)C(Cl)=C(N3CCN(C)CC3)C2=O)c1Cl [MLS-0090832] | 23.9 µM | 11.1 µM | – | –
12 | O=C1C(Cl)=C(N2CCN(C/C=C/c3ccccc3)CC2)C(=O)N1c1ccc(Cl)c(Cl)c1 [MLS-0090859] | 0.59 µM | 0.73 µM | – | –
13 | CS(=O)(=O)c1nc(-c2ccco2)cc(C(F)(F)F)n1 [Compound C164-0006] | – | – | 6 µM | IC50 [1, 5]: 7.2 µM
14 | COc1ccccc1-c1cc(C(F)(F)F)nc(S(=O)(=O)CCCC(=O)N2CCCCC2C)n1 (centres unmarked) [Compound C071-0367] | – | – | 12.8 µM | IC50 [1, 5]: 14.7 µM
15 | COc1ccc(-c2cc(C(F)(F)F)nc(S(C)(=O)=O)n2)c(OC)c1 [Compound C164-0014] | – | – | 6.38 µM | IC50 [1, 5]: 25.1 µM; IC50 [1, 7]: 40.7 µM and 5.92 µM and 27.2 µM and 28.8 µM and 22.9 µM; IC50 [2, 8]: 5.29 µM and 3.73 µM and 10.1 µM
16 | O=C1C(Cl)=C(Nc2ccccc2)C(=O)N1c1ccc(Cl)c(Cl)c1 [MLS-0067128] | – | – | – | Bfl-1 FP IC50 (uM) ([1]; Tables 3-5): no fit; Bfl-1 TR FRET IC50 (uM) ([2]; Tables 3-5): no fit
17 | CC1C(=O)NCCN1C1=C(Cl)C(=O)N(c2ccc(Cl)c(Cl)c2)C1=O (centres unmarked) [MLS-0090884] | 5.63 µM | 2.03 µM | – | –
18 | CCOC(=O)CS(=O)(=O)c1nc(-c2ccc(F)cc2)cc(C(F)(F)F)n1 [Compound 7979975] | – | – | 1.78 µM | IC50 [1, 7]: 1.98 µM and 1.27 µM and 0.695 µM and 1.72 µM and 0.866 µM and 3.33 µM and 4.4 µM and 6.43 µM; IC50 [2, 8]: 1.37 µM and 0.59 µM and 1.5 µM and 2.79 µM and 1.03 µM and 3.41 µM
19 | CN1CCN(C2=C(Cl)C(=O)N(c3ccc(Cl)cc3Cl)C2=O)CC1 [MLS-0090829] | 2.62 µM | 1.36 µM | – | –

Row | Structure (SMILES) | IC50 [1, 3] | IC50 [2, 4] | IC50 [2, 6] | other results
20 | CC(C)c1nnc(NC(=O)CCS(=O)(=O)c2nc(-c3cccs3)cc(C(F)(F)F)n2)s1 [ASN05990586] | – | – | 5.3 µM | IC50 [1, 5]: 11.3 µM
21 | CN1CCN(C2=C(Cl)C(=O)N(c3cccc(Cl)c3Cl)C2=O)CC1 [MLS-0090831] | 8.74 µM | 2.56 µM | – | –
22 | O=C1C(Cl)=C(N2CCCCC2)C(=O)N1c1ccc(Cl)c(Cl)c1 [MLS-0066990] | – | 1.3 µM | – | Bfl-1 FP IC50 (uM) ([1]; Tables 3-5): no fit
23 | COc1ccccc1-c1cc(C(F)(F)F)nc(S(=O)(=O)CCCC(=O)NC(C)C)n1 [Compound C071-0355] | – | – | – | Bfl-1 FPA IC50 (uM) [1, 9]: nodisplacement; Bfl-1 TR-FRET IC50 (uM) [2, 9]: nodisplacement
24 | COc1ccccc1-c1cc(C(F)(F)F)nc(S(=O)(=O)CCCC(=O)Nc2cc(C)on2)n1 [Compound C071-0415] | – | – | – | Bfl-1 FPA IC50 (uM) [1, 9]: nodisplacement; Bfl-1 TR-FRET IC50 (uM) [2, 9]: nodisplacement
25 | O=C1C(Cl)=C(N2CCN(CCO)CC2)C(=O)N1c1ccc(Cl)c(Cl)c1 [MLS-0090874] | 0.56 µM | 0.59 µM | – | –
26 | O=C1C(Cl)=C(N2CCN(Cc3ccc4c(c3)OCO4)CC2)C(=O)N1c1ccc(Cl)c(Cl)c1 [MLS-0090865] | 4.07 µM | 2.14 µM | – | –
27 | CN1CCN(C2CC(=O)N(c3ccc(Cl)c(Cl)c3)C2=O)CC1 (centres unmarked) [MLS-0066991] | – | – | – | Bfl-1 FP assay, activity in words ([1]; Bfl-1/FITC-Bid): inactive; Bfl-1 TR-FRET assay, activity in words ([2]; Bfl-1/FITC-Bid): inactive
28 | O=C1C(Cl)=C(N2CCOCC2)C(=O)N1c1ccc(Cl)c(Cl)c1 [MLS-0067124] | 1.41 µM | – | – | IC50 ([1]; text b265, read-out: IC50 in the FP assay): 1.4 µM; IC50 ([2]; text b265, read-out: IC50 in the TR-FRET assay): 1.14 µM
29 | COCC(C)NC(=O)CCS(=O)(=O)c1nc(-c2ccc(OC)cc2)cc(C(F)(F)F)n1 (centres unmarked) [BAS03664947] | – | – | 19.6 µM | IC50 [1, 5]: 20.6 µM
30 | COc1ccccc1-c1cc(C(F)(F)F)nc(S(=O)(=O)CCCC(=O)N2CCOCC2)n1 [Compound 7990929] | – | – | 19.1 µM | IC50 [1, 5]: 21.5 µM
31 | C[C@@H]1CN(C2=C(Cl)C(=O)N(c3ccc(Cl)c(Cl)c3)C2=O)CCN1 [MLS-0090857] | 1.16 µM | 1.03 µM | – | –
32 | CN1CCN(C2=C(Cl)C(=O)N(c3cc(Cl)cc(Cl)c3)C2=O)CC1 [MLS-0090828] | 2.44 µM | 1.66 µM | – | –
33 | CS(=O)(=O)c1nc(-c2ccccc2)cc(C(F)(F)F)n1 [Compound C164-0003] | – | – | – | Bfl-1 FPA IC50 (uM) [1, 9]: nodisplacement; Bfl-1 TR-FRET IC50 (uM) [2, 9]: nodisplacement
34 | O=C1C(Cl)=C(N2CCCC2)C(=O)N1c1ccc(Cl)c(Cl)c1 [MLS-0067126] | – | – | – | Bfl-1 FP IC50 (uM) ([1]; Tables 3-5): no fit; Bfl-1 TR FRET IC50 (uM) ([2]; Tables 3-5): no fit
35 | CN1CCN(C2=C(Cl)C(=O)N(c3ccccc3Cl)C2=O)CC1 [MLS-0090833] | 2.16 µM | 1.45 µM | – | –
36 | COCCNC1=C(Cl)C(=O)N(c2ccc(Cl)c(Cl)c2)C1=O [MLS-0067127] | 12.6 µM | 4.96 µM | – | –
37 | O=C1C(Cl)=C(N2CCN(Cc3ccccc3)CC2)C(=O)N1c1ccc(Cl)c(Cl)c1 [MLS-0090866] | 1.62 µM | 1.64 µM | – | –
